Source: article PMC11876671, “Investigating blood–brain barrier penetration and neurotoxicity of natural products for central nervous system drug development” (Scientific Reports, 2025)
Counter-ions that a name gives are not always drawn.

Assay: in vitro
Settings: PAMPA, PAMPA-BBB Pe

SMILES	Papp [×10⁻⁶ cm/s]
CCOC(=O)c1ccc(N)cc1 [BENZOCAINE]	99
COc1cc2c(cc1OC)[C@@]13CCN4CC5=CCO[C@H]6CC(=O)N2[C@H]1[C@H]6[C@H]5C[C@H]43 [BRUCINUM]	16
CC(C)(O)CC[C@@H](O)[C@](C)(O)[C@H]1CC[C@@]2(O)C3=CC(=O)[C@@H]4C[C@@H](O)[C@@H](O)C[C@]4(C)[C@H]3CC[C@]12C [COMMISTERONE]	14

Same assay, conditions: PAMPA, PAMPA-BBB Pe(10^-6 cm/sec)

SMILES	Papp [×10⁻⁶ cm/s]
COc1cc(/C=C/C(N)=O)cc(OC)c1OC [CINTRIAMIDE]	2.3
COc1cc2c(c(OC)c1OC)-c1ccc(OC)c(=O)cc1[C@@H](NC(C)=O)CC2 [COLCHCINE]	< 1
O=c1cccc2n1C[C@@H]1CNC[C@H]2C1 [CYTISINE]	< 1
CN(C)[C@@H]1C(O)=C(C(N)=O)C(=O)[C@@]2(O)C(O)=C3C(=O)c4c(O)ccc(Cl)c4[C@@H](O)[C@H]3C[C@@H]12 [DEMECLOCYCLINE HYDROCHLORIDE]	1.5
O=C(O)c1cccc(C(=O)O)n1 [D[…]]	< 1

Same assay, conditions: PAMPA, PAMPA-BBB Pe(10^-6 cm/sec), Table S3: compounds exhibiting low PAMPA-BBB permeability

SMILES	Papp [×10⁻⁶ cm/s]
c1cncc([C@@H]2CCCCN2)c1 [ANABASINE]	3.4
O=c1cc(-c2ccc(O)cc2)oc2cc(O[C@@H]3O[C@H](CO)[C@@H](O)[C@H](O)[C@H]3O[C@@H]3OC[C@](O)(CO)[C@H]3O)cc(O)c12 [APIIN]	2
CC1=C(/C=C/C(C)=C/C=C/C(C)=C/C=C/C=C(C)/C=C/C=C(\C)C=O)C(C)(C)CCC1 [APOCAROTENAL]	< 1
Nc1nc2c(ncn2[C@@H]2O[C@H](CO)[C@@H](O)[C@@H]2O)c(=O)[nH]1 [ARAGUANOSINE]	< 1
OC[C@H]1O[C@@H](Oc2ccc(O)cc2)[C@H](O)[C@@H](O)[C@@H]1O [ARBUTIN]	< 1
COc1cccc2c1cc([N+](=O)[O-])c1c(C(=O)O)cc3c(c12)OCO3 [ARISTOLOCHIC ACID]	< 1
Nc1ncn([C@@H]2O[C@H](CO)[C@@H](O)[C@H]2O)c(=O)n1 [AZACITIDINE]	< 1
O=[N+]([O-])c1ncc[nH]1 [AZOMYCIN]	< 1
CC(=O)O[C@H]1C(=O)[C@@]2(C)[C@H]([C@H](OC(=O)c3ccccc3)[C@]3(O)C[C@H](O)C(C)=C1C3(C)C)[C@]1(OC(C)=O)CO[C@@H]1C[C@@H]2O [BACCATIN III]	< 1
O=C(O)[C@H]1O[C@@H](Oc2cc3oc(-c4ccccc4)cc(=O)c3c(O)c2O)[C@H](O)[C@@H](O)[C@@H]1O [BAICALIN]	1.3
COc1ccc2cc3[n+](cc2c1OC)CCc1cc2c(cc1-3)OCO2 [BERBERINE HYDROCHLORIDE]	< 1
CC(C)=CCC/C(C)=C/COc1c2ccoc2cc2oc(=O)ccc12 [BERGAMOTTIN]	5.8
COc1c(O)cc2c(c1O)[C@@H]1O[C@H](CO)[C@@H](O)[C@H](O)[C@H]1OC2=O [BERGENIN]	< 1
CC1=C(/C=C/C(C)=C/C=C/C(C)=C/C=C/C=C(C)/C=C/C=C(C)/C=C/C2=C(C)CCCC2(C)C)C(C)(C)CCC1 [BETA CAROTENE]	9.2
Oc1ccc2c(c1)OC[C@]1(O)Cc3cc(O)c(O)cc3[C@H]21 [BRAZILIN]	1.9
O=C(/C=C/c1ccc(O)c(O)c1)c1ccc(O)cc1O [BUTEIN]	< 1
O=C(O)/C=C/c1ccc(O)c(O)c1 [CAFFEIC ACID]	< 1
COc1ccc2c(c1OC)CN1CCc3cc4c(cc3[C@@H]1C2)OCO4 [CANADINE]	5.5
COc1ccc2cc1Oc1ccc(cc1)C[C@H]1c3c(cc4c(c3Oc3cc5c(cc3OC)CCN(C)[C@@H]5C2)OCO4)CCN1C [CEPHARANTHINE]	< 1
CO[C@H]1[C@@H](O)[C@@H](C)O[C@H](O[C@H]2[C@H](Oc3cccc4c(O)c5c(=O)oc6ccc(C)c7c(=O)oc(c34)c5c67)O[C@H](C)[C@H](O)[C@@H]2O)[C@@H]1O [CHARTREUSIN]	4
O=C(/C=C/c1ccc(O)c(O)c1)O[C@@H]1C[C@](O)(C(=O)O)C[C@@H](O)[C@H]1O [CHLOROGENIC ACID]	< 1
C=C1CC[C@H](O)C/C1=C/C=C1\CCC[C@]2(C)[C@@H]([C@H](C)CCCC(C)C)CC[C@@H]12 [CHOLECALCIFEROL]	< 1
CO[C@@H]1[C@H](O)C[C@@H](O[C@@H]2C[C@H](Oc3cc4cc5c(c(O)c4c(O)c3C)C(=O)[C@@H](O[C@H]3C[C@@H](O[C@H]4C[C@@H](O[C@H]6C[C@](C)(O)[C@@H](OC(C)=O)[C@H](C)O6)[C@H](O)[C@@H](C)O4)[C@H](O)[C@@H](C)O3)[C@H]([C@H](OC)C(=O)[C@@H](O)[C@@H](C)O)C5)O[C@H](C)[C@@H]2OC(C)=O)O[C@@H]1C [CHROMOMYCIN A3]	< 1

SMILES	Papp [×10⁻⁶ cm/s]
N[C@@H](Cc1c[nH]c2ccc(O)cc12)C(=O)O [CINCOFARM]	< 1
O=C(O)/C=C/c1ccccc1 [CINNAMIC ACID]	< 1
C=CC(C)=CCC=C(C)C [CIS BETA OCIMENE]	3.9
CC(C)(COP(=O)(O)OP(=O)(O)OC[C@H]1O[C@@H](n2cnc3c(N)ncnc32)[C@H](O)[C@@H]1OP(=O)(O)O)[C@@H](O)C(=O)NCCC(=O)NCCS [COENZYME A]	< 1
Nc1ncnc2c1ncn2[C@@H]1O[C@H](CO)C[C@H]1O [CORDYCEPIN]	< 1
O=c1cc(-c2ccc(O)cc2)oc2cc(O[C@H]3OC(CO)C(O)C(O)C3O)cc(O)c12 (stereo partly shown) [COSMOSIOSIDE]	1.6
COc1c2c(cc3c1OCO3)CC[N+](C)=C2 [COTARNINIUM]	< 1
CN1C(=O)CC[C@H]1c1cccnc1 [COTININE]	< 1
CC(/C=C/C=C(\C)C(=O)O[C@@H]1O[C@H](CO[C@@H]2O[C@H](CO)[C@@H](O)[C@H](O)[C@H]2O)[C@@H](O)[C@H](O)[C@H]1O)=C\C=C\C=C(C)\C=C\C=C(/C)C(=O)O[C@@H]1O[C@H](CO[C@@H]2O[C@H](CO)[C@@H](O)[C@H](O)[C@H]2O)[C@@H](O)[C@H](O)[C@H]1O [CROCIN]	6.1
CC(C=O)Cc1ccc(C(C)C)cc1 (stereo not shown) [CYCLAMEN ALDEHYDE]	8.2
O=C(/C=C/c1ccc(O)c(O)c1)O[C@@H]1C[C@@](OC(=O)/C=C/c2ccc(O)c(O)c2)(C(=O)O)C[C@@H](O)[C@@H]1O [CYNARINE]	< 1
O=c1c(-c2ccc(O)cc2)coc2cc(O[C@@H]3O[C@H](CO)[C@@H](O)[C@H](O)[C@H]3O)ccc12 [DAIDZIN]	< 1
O=c1ccc2ccc(O)c(O)c2o1 [DAPHNETIN]	3.8
O=c1ccc2ccc(O[C@@H]3O[C@H](CO)[C@@H](O)[C@H](O)[C@H]3O)c(O)c2o1 [DAPHNIN]	< 1
O=c1c(O)c(-c2ccccc2O)oc2cc(O)cc(O)c12 [DATISCETIN]	2.2
CC(C)Nc1nc(N)nc(Cl)n1 [DEETHYLATRAZINE]	6.8
CNCCc1ccc(O)c(O)c1 [DEOXYEPINEPHRINE HYDROCHLORIDE]	< 1
O=c1ccn([C@H]2C[C@H](O)[C@@H](CO)O2)c(=O)[nH]1 [DEOXYURIDINE]	< 1
O=C1c2c(O)cc(O)cc2O[C@H](c2cc(O)c(O)c(O)c2)[C@H]1O [DIHYDROMYRICETIN]	< 1
Cc1cccc2c3c(ccc12)C1=C(C(=O)C3=O)[C@@H](C)CO1 [DIHYDROTANSHINONE I]	3.7
N[C@H](C(=O)O)c1cc(O)cc(O)c1 [DIHYDROXYPHENYLGLYCINE]	< 1
O=C(O)Cc1ccc(O)c(O)c1 [DOPACETIC ACID]	< 1
Oc1cc(O)c2cc(O)c(-c3cc(O)c(O)c(O)c3)[o+]c2c1 [D[…]]	4.7

Same assay, conditions: PAMPA, PAMPA-BBB Pe, Table S2: compounds exhibiting moderate to high PAMPA-BBB permeability

SMILES	Papp [×10⁻⁶ cm/s]
CN1CCCCC1c1ccc(-c2cccnc2)nc1 (stereo not shown) [ANABASAMINE]	31
C/C=C/c1ccc(OC)cc1 [ANETHOLE]	120
O=C1c2c(O)cc(O)cc2O[C@@H](c2ccc(O)cc2)[C@@H]1O [AROMADENDRINE]	58
O=C(/C=C/c1ccccc1)OCc1ccccc1 [BENZYL CINNAMATE]	> 424
C/C(=C\COc1c2ccoc2cc2oc(=O)ccc12)CCC(O)C(C)(C)O (stereo not shown) [BERGAMOTTIN DIHYDROXYBERGAMOTTIN]	55
O=C1NC(=O)C(c2c[nH]c3ccccc23)=C1c1c[nH]c2ccccc12 [BISINDOLYLMALEIMIDE]	> 654
COc1cc2c(cc1O)C[C@H]1c3c(cc(O)c(OC)c3-2)CCN1C [BOLDINE]	49
C[C@]12CC[C@H](O)C[C@H]1CC[C@@H]1[C@@H]2CC[C@]2(C)[C@@H](c3ccc(=O)oc3)C[C@H]3O[C@]132 [BUFOGENIN]	115
CCN1C[C@@]2(COC)CCC(OC)[C@@]34[C@@H]1C([C@H](OC)[C@H]23)[C@@]1(OC(C)=O)C[C@H](OC)[C@@]2(O)C[C@H]4C1[C@H]2OC(=O)c1ccc(OC)cc1 (stereo partly shown) [BULLE[…]]	17
Cc1ccc(C(C)C)cc1O [CARVACROL]	111
COc1ccc(-c2oc3cc(O[C@@H]4O[C@H](CO)[C@@H](O)[C@H](O)[C@H]4O)c(OC)c(O)c3c(=O)c2OC)cc1O [CENTAUREIN]	38
COc1ccc2c(c[n+](C)c3c4cc5c(cc4ccc23)OCO5)c1OC [CHELE[…]]	95
COc1cc(-c2cc(=O)c3c(O)cc(O)cc3o2)ccc1O [CHRYSERIOL]	179
C=C[C@H]1C[N@@]2CC[C@H]1C[C@@H]2[C@@H](O)c1ccnc2ccccc12 [CINCHONINE]	22
CC(=O)OCC=Cc1ccccc1 [CINNAMYL ACETATE]	88
O=c1ccc2ccccc2o1 [COUMARIN]	74
COc1cc(/C=C/c2ccccc2)oc(=O)c1 [DEMETHOXYYANGONIN]	186
C[C@]12CC[C@H]3[C@@H](CCC4=CC(=O)CC[C@@]43C)[C@@H]1CC[C@@H]2C(=O)CO [DESOXYCORTICOSTERONE]	65
COC1=CC(=O)O[C@@H](CCc2ccccc2)C1 [DIHYDROKAWAIN]	82
COc1cc2c(O)c3c(c(-c4ccc5c(c4)OCO5)c2cc1OC)C(=O)OC3 [DIPHYLLIN]	187
C[C@]12CCC(=O)C=C1[C@@H]1C[C@@H]1[C@H]1[C@@H]3[C@@H]4C[C@@H]4[C@@]4(CCC(=O)O4)[C@@]3(C)CC[C@@H]12 [DROSPIRENONE]	169
COc1cc(C)c(C(=O)Oc2cc(C)c(C(=O)O)c(O)c2C)c(OC)c1C [Diffractaic acid]	15
